Data reported in paper PMC6685790 (Nature structural & molecular biology, 2008).
Positions count from the first letter of the chain named.

Assays:
Type in all cases: cell-based
GlyR α1^F99A = biological target: T1, GlyR α1^F99A (Homo sapiens, UniProt P23415, F127A); assay: Whole-cell recording of substituted GlyR in HEK cells; settings: α1^F99A
T1 sequence (P23415 29-457 F127A): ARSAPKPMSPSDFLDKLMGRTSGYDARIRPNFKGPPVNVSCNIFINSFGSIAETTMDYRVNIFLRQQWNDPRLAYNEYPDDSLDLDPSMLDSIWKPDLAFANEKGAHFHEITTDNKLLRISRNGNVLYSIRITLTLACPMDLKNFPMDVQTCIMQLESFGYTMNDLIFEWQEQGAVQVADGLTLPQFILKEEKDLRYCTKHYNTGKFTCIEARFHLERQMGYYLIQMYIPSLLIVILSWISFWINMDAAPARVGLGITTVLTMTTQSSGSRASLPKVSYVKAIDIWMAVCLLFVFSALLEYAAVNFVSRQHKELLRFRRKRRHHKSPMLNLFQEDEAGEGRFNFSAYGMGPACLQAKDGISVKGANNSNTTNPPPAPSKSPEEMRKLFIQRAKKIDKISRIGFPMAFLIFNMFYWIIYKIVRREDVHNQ

GlyR α1^I62A = biological target: T2, GlyR α1^I62A (Homo sapiens, UniProt P23415, I90A); assay: as above
T2 sequence (P23415 29-457 I90A): T1 sequence (P23415 29-457 F127A) with I62A, A99F

GlyR α1 WT = biological target: T3, GlyR α1 WT (Homo sapiens, UniProt P23415); assay: Whole-cell recording of wild-type GlyR α1 expressed in HEK cells
T3 sequence (P23415 29-457): T1 sequence (P23415 29-457 F127A) with A99F

GlyR α1^F99A,E157A = biological target: T4, GlyR α1^F99A,E157A (Homo sapiens, UniProt P23415, E185A/F127A); assay: Whole-cell recording of substituted GlyR in HEK cells
T4 sequence (P23415 29-457 F127A/E185A): T1 sequence (P23415 29-457 F127A) with E157A

GlyR α1^I111A = biological target: T5, GlyR α1^I111A (Homo sapiens, UniProt P23415, I139A); assay: as above
T5 sequence (P23415 29-457 I139A): T1 sequence (P23415 29-457 F127A) with A99F, I111A

GlyR α1^L134A = biological target: T6, GlyR α1^L134A (Homo sapiens, UniProt P23415, L162A); assay: as above; settings: α1^L134A
T6 sequence (P23415 29-457 L162A): T1 sequence (P23415 29-457 F127A) with A99F, L134A

[1] = read-out: Zn^2+ Activation EC50, direct activation without glycine
[2] = read-out: Zn^2+ Inhibition IC50, modulation of EC50 glycine currents
[3] = maximal Zn^2+ response as percentage of maximal glycine response in same cell

For `[Zn+2]` [Zn^2+], the EC50 (GlyR α1^F99A; [1]) was 0.13 ± 0.03 µM, the IC50 (GlyR α1^F99A; [2]) was greater than 1000 µM and the “Zn^2+ Activation nH” value (GlyR α1^F99A; Hill slope) was 1.1 ± 0.1. For the same compound, the “Zn^2+ Activation Relative efficacy (% Gly Imax)” value (GlyR α1^F99A; [3]) was 86 ± 13 % Gly Imax, the “Zn^2+ Activation Relative efficacy (% Gly Imax)” value (GlyR α1^I62A; maximal activation with 1 mM Zn^2+, as percentage of maximal glycine response in same cell) was 3 ± 1 % Gly Imax and the EC50 (GlyR α1^I62A; [1]) was greater than 1000 µM. The IC50 (GlyR α1^I62A; [2]) was greater than 1000 µM, the “Zn^2+ Activation EC50” value (GlyR α1 WT; direct activation without glycine) was “None” and the IC50 (GlyR α1 WT; [2]) was 15 ± 2 µM. The “Decrease in sensitivity to Zn^2+ activation” value (GlyR α1^F99A,E157A; E157A on α1^F99A background vs α1^F99A) was 3 fold, the “Zn^2+ sensitivity compared with α1^F99A” value (GlyR α1^F99A,E157A; α1^F99A,E157A, Zn^2+ activation) was “identical” and the “Zn^2+ Activation nH” value (GlyR α1^I111A; Hill slope) was 0.7 ± 0.2. The “Zn^2+ Activation Relative efficacy (% Gly Imax)” value (GlyR α1^I111A; [3]) was 83 ± 3 % Gly Imax, the EC50 (GlyR α1^I111A; [1]) was 470 ± 130 µM and the IC50 (GlyR α1^I111A; [2]) was greater than 1000 µM. The EC50 (GlyR α1^L134A; [1]) was 0.06 ± 0.01 µM, the IC50 (GlyR α1^L134A; [2]) was greater than 1000 µM and the “Zn^2+ Activation nH” value (GlyR α1^L134A; Hill slope) was 1.3 ± 0.1. For the same compound, the “Zn^2+ Activation Relative efficacy (% Gly Imax)” value (GlyR α1^L134A; [3]) was 38 ± 9 % Gly Imax.
In the case of `NCC(=O)O` [Glycine, glycine], the “Glycine Imax” value (GlyR α1^F99A) is reported as 3.9 ± 0.4 nA, the “Glycine nH” value (GlyR α1^F99A; Hill slope) is reported as 2.3 ± 0.3 and the “Glycine Imax” value (GlyR α1^I62A) is reported as 7.6 ± 0.7 nA. For the same compound, the “Glycine nH” value (GlyR α1^I62A; Hill slope) was 2.5 ± 0.1, the “Glycine Imax” value (GlyR α1 WT) was 6.8 ± 0.5 nA and the “Glycine nH” value (GlyR α1 WT; Hill slope) was 2.7 ± 0.2. The Activation by glycine (GlyR α1^F99A,E157A; α1^F99A,E157A, up to 10 mM glycine) was “insensitive”, the “Glycine Imax” value (GlyR α1^I111A) was 4.6 ± 0.8 nA and the “Glycine nH” value (GlyR α1^I111A; Hill slope) was 1.3 ± 0.2. For the same compound, the “Glycine Imax” value (GlyR α1^L134A) was 6.0 ± 0.3 nA and the “Glycine nH” value (GlyR α1^L134A; Hill slope) was 3.0 ± 0.4.
